Test in all cases: microbe, parasite or virus in culture
Format in all cases: cell-based, Pseudomonas aeruginosa

In one assay the test system is MB5890 (OprD+, efflux-). The conditions noted are these: MB5890, OprD+, efflux−. The source says:
(§1) The strain background is Pseudomonas aeruginosa PAO1. A wild-type (M135919) and an isogenic strain in which multiple efflux pumps have been disrupted genetically were used. The MBL IMP-1, obtained from a clinical isolate was introduced into the strain pair by the following process:
(§2) The plasmid DNA was transformed into parental MB5919 (oprD+, efflux+, inducible AmpC) and MB5890 (oprD+, efflux−, inducible AmpC) isogenic strains by electroporation.
(§3) Minimum inhibitory concentrations of sentinel antibiotics were performed to quality control the new strains.

A further assay deals with MB5919 (OprD+, efflux+). Particulars: MB5919, OprD+, efflux+.
Text: as §1, §2, §3

Assay [1] has as its system MB9798 (efflux+ MB5919 Trans IMP1 plasmid). Particulars: MB9798, OprD+, efflux+, MB5919 Trans IMP1 plasmid (CL 5673).
Text: as §1, §2, §3

Assay [2] has as its system MB9799 (efflux- MB5890 Trans IMP1 plasmid). The conditions noted are these: MB9799, OprD+, efflux−, MB5890 Trans IMP1 plasmid (CL 5673).
Text: as §1, §2, §3

Assay [3] relates to MB9861 (Efflux+ MB5919 Trans pFlp-Vim1 plasmid). The conditions noted are these: MB9861, OprD+, Efflux+, MB5919 Trans pFlp-Vim1 plasmid.
In assay [4] the test system is MB9862 (efflux- MB5890 trans pFlp-Vim1). The conditions noted are these: MB9862, OprD+, efflux−, MB5890 trans pFlp-Vim1.
The subject of assay [5] is efflux+ MB5919 Trans pFlp-Vim2 plasmid. The conditions noted are these: OprD+, efflux+, MB5919 Trans pFlp-Vim2 plasmid.
Assay [6] has as its system efflux- MB5890 Trans pFlp-Vim2 plasmid. The conditions noted are these: OprD+, efflux−, MB5890 Trans pFlp-Vim2 plasmid.

Converted amounts (≈) assume the structure as drawn.

Regarding `CCN1CCN(C(=O)N[C@@H](C(=O)N[C@@H]2C(=O)N3[C@@H]2SC(C)(C)[C@@H]3C(=O)O)c2ccccc2)C(=O)C1=O` [Pipercillin, piperacillin], the MIC against MB5890 (OprD+, efflux-) was 1 µg/mL (≈ 1.93 µM); in the assay with MB5919 (OprD+, efflux+), 2 µg/mL (≈ 3.86 µM); in assay [1] it was 4 µg/mL (≈ 7.73 µM); in assay [2], 4 µg/mL (≈ 7.73 µM); in assay [3], over 256 µg/mL; in assay [4], 128 µg/mL (≈ 247 µM). For the same compound, the MIC in assay [5] was over 256 µg/mL; in assay [6], 128 µg/mL (≈ 247 µM).

For the origin of these results see US11207312B2, “Metallo-beta-lactamase inhibitors and methods of use thereof” (priority 2017, dated 2021).
